Experimental data published in ChEMBL document CHEMBL5528047, “A Potent SOS1 PROTAC Degrader with Synergistic Efficacy in Combination with KRASG12C Inhibitor” (J Med Chem, 2024).
Calls of active or inactive are those of the source. The calls are words filed in the database; no cut-off is given here.

Key:
MIA PaCa-2 [1] = assay: Inhibition of ERK phosphorylation in human MIA PaCa-2 cells at 300 nM after 24 hrs; format: cell-based
NCI-H358 [2] = assay: Inhibition of ERK phosphorylation in human NCI-H358 cells at 300 nM after 24 hrs; format: cell-based
MIA PaCa-2 [3] = assay: Upregulation of SOS1 protein in human MIA PaCa-2 cells; format: functional, cell-based
NCI-H358 [4] = assay: Upregulation of SOS1 protein in human NCI-H358 cells; format: functional, cell-based
[5] = Stability in human MIA PaCa-2 cells assessed as compound remaining at 0.2 mM after 72 hrs by HPLC analysis; format: ADME, cell-based; settings: read-out: Stability
[6] = Stability in human NCI-H358 cells assessed as compound remaining at 0.2 mM after 72 hrs by HPLC analysis; format: ADME, cell-based; settings: read-out: Stability
MIA PaCa-2 [7] = assay: Inhibition of RAS pathway in SOS1 knockout human MIA PaCa-2 cells at 100 nM; format: cell-based
NCI-H358 [8] = assay: Inhibition of RAS pathway in SOS1 knockout human NCI-H358 cells at 100 nM; format: cell-based
MIA PaCa-2 [9] = assay: Inhibition of ERK phosphorylation in human MIA PaCa-2 cells at 100 nM after 24 to 72 hrs in presence of BI3406 by Western blotting analysis; format: cell-based; settings: time 24-72 hrs
NCI-H358 [10] = assay: Antiproliferative activity against human NCI-H358 cells incubated for 6 days by CCK8 assay; format: functional, cell-based; settings: NCI-H358, 144 h
MIA PaCa-2 [11] = assay: Antiproliferative activity against human MIA PaCa-2 cells incubated for 6 days by CCK8 assay; format: functional, cell-based; settings: MIA PaCa-2, 144 h
SW837 [12] = assay: Antiproliferative activity against human SW837 cells incubated for 6 days by CCK8 assay; format: functional, cell-based; settings: SW837, 144 h
NCI-H358 [13] = assay: (§1) Antiproliferative activity against human NCI-H358 cells incubated for 6 days in presence of 1 uM (2S,4R)-1-((S)-2-(5-((4-(((R)-1-(3-amino-5-(trifluoromethyl)phenyl)ethyl)amino)-7-methoxy-2-methylquinazolin-6-yl)oxy)pentanamido)-3,3-dimethylbutanoyl)-4-hydroxy-N-(4-(4-methylthiazol-5-yl)benzyl)pyrrolidine-2-carboxamide by CCK8 assay; format: functional, cell-based; settings: NCI-H358, 144 h
MIA PaCa-2 [14] = assay: as §1, with “MIA PaCa-2” for “NCI-H358”; format: functional, cell-based; settings: MIA PaCa-2, 144 h
SW837 [15] = assay: as §1, with “SW837” for “NCI-H358”; format: functional, cell-based; settings: SW837, 144 h
NCI-H358 [16] = assay: as §1, with “of 10” for “of 1”; format: functional, cell-based; settings: NCI-H358, 144 h
MIA PaCa-2 [17] = assay: as §1, with “human MIA PaCa-2” for “human NCI-H358”, “of 10” for “of 1”; format: functional, cell-based; settings: MIA PaCa-2, 144 h
SW837 [18] = assay: as §1, with “human SW837” for “human NCI-H358”, “of 10” for “of 1”; format: functional, cell-based; settings: SW837, 144 h
NCI-H358 [19] = assay: Antitumor activity against human NCI-H358 cells xenografted in BALB/c mouse assessed as tumor growth inhibition at 10 mg/kg, ip administered once daily for 28 days; format: functional; settings: NCI-H358, 672 h, time 28 day, read-out: TGI

C=CC(=O)N1CCN(c2nc(=O)n(-c3c(C)ccnc3C(C)C)c3nc(-c4c(O)cccc4F)c(F)cc23)[C@@H](C)C1 [SOTORASIB]
inhibition (MIA PaCa-2 [1]): Active | inhibition (NCI-H358 [2]): Active | Activity (MIA PaCa-2 [3]): Active | Activity (NCI-H358 [4]): Active | remaining at 72 h, 200 µM [5]: > 70% | remaining at 72 h, 200 µM [6]: > 70% | inhibition (MIA PaCa-2 [7]): Active | inhibition (NCI-H358 [8]): Active | inhibition (MIA PaCa-2 [9]): Active | IC50 (NCI-H358 [10]): 10 nM | IC50 (MIA PaCa-2 [11]): 37 nM | IC50 (SW837 [12]): 9 nM | IC50 (NCI-H358 [13]): 4 nM | IC50 (MIA PaCa-2 [14]): 13 nM | IC50 (SW837 [15]): 3 nM | IC50 (NCI-H358 [16]): 1 nM | IC50 (MIA PaCa-2 [17]): 6 nM | IC50 (SW837 [18]): 2 nM | inhibition in vivo at 10 mg/kg (NCI-H358 [19]): 34.9%
